From US20070191420A1, “Kinase inhibitors” (Devgen NV, priority 2004, published 2007)
Counter-ions that a name gives are not always drawn.

What was measured:
Assay in all cases: Fluorescence polarization (FP) PKC inhibition assay, Protein Kinase C Assay Kit, Red (Invitrogen)
Assay type in all cases: biochemical
PKC zeta = target: T1, PKC zeta (Homo sapiens, UniProt Q05513); conditions: enzyme 20 ng/ml, ATP 2.5 μM
T1 construct: purchased Invitrogen 9232
T1 sequence (Q05513 1-592): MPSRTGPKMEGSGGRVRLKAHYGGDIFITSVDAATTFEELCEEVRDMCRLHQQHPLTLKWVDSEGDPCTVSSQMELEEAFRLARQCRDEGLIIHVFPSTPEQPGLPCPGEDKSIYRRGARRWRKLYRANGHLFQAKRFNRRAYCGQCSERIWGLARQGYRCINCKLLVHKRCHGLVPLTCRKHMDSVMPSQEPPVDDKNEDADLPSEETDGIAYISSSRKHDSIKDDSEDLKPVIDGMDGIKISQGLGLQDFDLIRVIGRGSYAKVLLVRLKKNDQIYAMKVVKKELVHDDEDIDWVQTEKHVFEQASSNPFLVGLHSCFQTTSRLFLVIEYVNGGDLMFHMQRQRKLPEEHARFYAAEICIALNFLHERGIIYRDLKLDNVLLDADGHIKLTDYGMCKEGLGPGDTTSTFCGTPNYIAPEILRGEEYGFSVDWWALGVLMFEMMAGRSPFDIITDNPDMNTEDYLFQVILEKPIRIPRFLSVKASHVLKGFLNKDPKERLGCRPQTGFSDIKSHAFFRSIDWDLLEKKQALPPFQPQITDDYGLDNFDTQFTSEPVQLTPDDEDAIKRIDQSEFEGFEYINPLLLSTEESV
Description: (§1) To perform the assay, 2 μl of a solution of the compound to be tested in DMSO (at each concentration) was added to 6 μl of a solution of the enzyme in 10 mM HEPES, 5 mM dithiotreitol, 0.1% Triton X-100, pH 7,4.
(§2) After incubating for 30 minutes at room temperature, 4 μl of a mixture of ATP and the protein substrate in 60 mM HEPES (pH7.4), 15 mM MgCl2, 0.3 mM CaCl2, 0.06% NP40 was added.
(§3) After incubating for 80 minutes at room temperature, 3 μl of a mix solution of 500 mM EDTA (stop solution) and the Rhodamine-based PKC Red Tracer (from the Protein Kinase C Assay Kit) in BGG/phosphate buffer (pH7.4) with 0.02% NaN3 and 0.1% Triton X-100 was added and 5 μl of a the Anti-Phosphoserine antibody (also from the Protein Kinase C Assay Kit) in BGG/phosphate buffer (pH7.4) with 0.02% NaN3.
(§4) The results were fitted to a curve using the XL-Fit algorithm and IC50 values were calculated for each fitted curve, again using the XL-Fit algorithm.

PKC gamma = target: T2, PKC gamma (Homo sapiens, UniProt P05129); conditions: enzyme 20 ng/ml, ATP 2.5 μM
T2 construct: purchased Invitrogen 9343
Description: (§5) The substrate used was […]
as §1, §2, §3, §4

PKC epsilon = target: T3, PKC epsilon (Homo sapiens, UniProt Q02156); conditions: enzyme 10 ng/ml, ATP 2.5 μM
T3 construct: purchased Invitrogen 6906
T3 sequence (Q02156 1-737): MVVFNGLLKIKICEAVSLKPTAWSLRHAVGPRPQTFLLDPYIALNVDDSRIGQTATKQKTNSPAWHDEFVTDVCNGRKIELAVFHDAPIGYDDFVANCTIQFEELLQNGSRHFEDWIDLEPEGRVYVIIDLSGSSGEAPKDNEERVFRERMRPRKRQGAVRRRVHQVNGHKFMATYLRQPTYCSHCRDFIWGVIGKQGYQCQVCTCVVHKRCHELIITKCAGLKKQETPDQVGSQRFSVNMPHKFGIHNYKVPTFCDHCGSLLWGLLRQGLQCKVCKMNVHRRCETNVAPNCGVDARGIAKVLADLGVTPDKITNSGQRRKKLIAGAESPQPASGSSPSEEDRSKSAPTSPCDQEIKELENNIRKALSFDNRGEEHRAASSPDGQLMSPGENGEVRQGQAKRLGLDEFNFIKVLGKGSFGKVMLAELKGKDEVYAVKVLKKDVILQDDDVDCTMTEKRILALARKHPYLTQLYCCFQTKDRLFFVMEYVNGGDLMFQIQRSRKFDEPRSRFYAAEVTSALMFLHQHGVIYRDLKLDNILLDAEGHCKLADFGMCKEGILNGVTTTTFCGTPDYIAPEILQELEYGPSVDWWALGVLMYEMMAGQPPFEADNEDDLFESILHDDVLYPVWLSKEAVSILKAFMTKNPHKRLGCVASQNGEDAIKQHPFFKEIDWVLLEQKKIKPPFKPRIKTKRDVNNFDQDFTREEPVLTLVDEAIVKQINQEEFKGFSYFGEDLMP
Description: as §5, §1, §2, §3, §4

PKC theta = target: T4, PKC theta (Homo sapiens, UniProt Q04759); conditions: enzyme 20 ng/ml, ATP 2.5 μM
T4 construct: purchased Invitrogen 7101
Description: as §5, §1, §2, §3, §4

T4 sequence (Q04759 whole entry): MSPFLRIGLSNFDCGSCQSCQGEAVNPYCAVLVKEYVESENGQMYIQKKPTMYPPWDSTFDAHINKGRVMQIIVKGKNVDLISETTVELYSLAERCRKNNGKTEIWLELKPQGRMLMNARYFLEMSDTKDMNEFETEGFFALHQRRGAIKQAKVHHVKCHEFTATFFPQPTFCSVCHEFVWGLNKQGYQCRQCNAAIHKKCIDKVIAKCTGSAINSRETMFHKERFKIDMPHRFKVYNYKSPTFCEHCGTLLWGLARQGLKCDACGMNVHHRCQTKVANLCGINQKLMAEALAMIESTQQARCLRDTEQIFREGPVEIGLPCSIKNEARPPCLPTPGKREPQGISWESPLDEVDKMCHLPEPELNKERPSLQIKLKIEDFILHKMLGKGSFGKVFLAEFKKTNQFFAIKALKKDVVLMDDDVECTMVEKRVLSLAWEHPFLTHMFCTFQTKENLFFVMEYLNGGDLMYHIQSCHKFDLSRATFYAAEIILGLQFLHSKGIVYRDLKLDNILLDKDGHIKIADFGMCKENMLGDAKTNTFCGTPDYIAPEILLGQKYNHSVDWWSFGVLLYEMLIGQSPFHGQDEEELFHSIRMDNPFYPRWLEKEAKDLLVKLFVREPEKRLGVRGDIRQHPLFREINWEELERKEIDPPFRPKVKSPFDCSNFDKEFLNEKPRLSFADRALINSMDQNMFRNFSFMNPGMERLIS

Row | IC50 (PKC zeta; substrate […] 1 μM) [µM] | IC50 (PKC gamma; substrate […] 1 μM) [µM] | IC50 (PKC epsilon; substrate […] 1 μM) [µM] | IC50 (PKC theta; substrate […] 1 μM) [µM] | Molecule | IC50 (PKC zeta; substrate RFARKGSLRQKNV 1 μM) [µM] | IC50 (PKC gamma; substrate RFARKGSLRQKNV 1 μM) [µM] | IC50 (PKC epsilon; substrate RFARKGSLRQKNV 1 μM) [µM] | IC50 (PKC theta; substrate RFARKGSLRQKNV 1 μM) [µM]
1 | > 100 | 17.3 | 0.3 | 0.63 | NC(c1ccc(C(=O)Nc2ccnc3[nH]ccc23)cc1)C1CCCC1 (stereo not drawn) [Compound 42] | – | – | – | –
2 | > 100 | > 100 | > 100 | > 100 | NCc1ccc(C(=O)Nc2ccncc2)o1 [Compound 15, 5-(amino-methyl)-furan-2-carboxylic acid pyridine-4-ylamide dihydrochloric acid salt] | – | – | – | –
3 | 45.9 | > 100 | 16 | 9.01 | CC(N)c1ccc(C(=O)Nc2ccncc2)s1 (racemic) [Compound 22, 5-(1-amino-ethyl)-thiophene-2-carboxylic acid pyridinedin-4-ylamide] | – | – | – | –
4 | > 100 | > 100 | > 100 | > 100 | CC(c1ccc(C(=O)Nc2ccncc2)cc1)N(C)C (stereo not drawn) [Compound 17] | – | – | – | –
5 | 22.1 | > 100 | 1.21 | 2.25 | CC(N)c1ccc(C(=O)Nc2ccncc2)cc1 (stereo not drawn) [Compound 23, 4-(1-amino-ethyl)-N-pyridin-4-yl-benzamide dihydrochloric acid salt] | – | – | – | –
6 | > 100 | – | 3.9 | 3.2 | CC(N)c1ccc(C(=O)Nc2ccnc3[nH]ccc23)s1 (stereo not drawn) [Compound 40, 5-(1-amino-ethyl)-thiophene-2-carboxylic acid N-(1H-pyrrolo[2,3pyridinedin-4-yl)-benzamidedihydrochloric acid salt] | – | – | – | –
7 | 70 | 76 | 0.94 | 1.7 | NC(c1ccc(C(=O)Nc2ccncc2)cc1)C1CCCC1 (stereo not drawn) [Compound 27] | – | – | – | –
8 | > 100 | > 100 | 18.7 | 80.3 | COc1ccc(C(N)c2ccc(C(=O)Nc3ccncc3)cc2)cc1 (stereo not drawn) [Compound 37, 4-[1-amino-(4-methoxyphenyl)-methyl]-N-pyridin-4-yl-benzamide] | – | – | – | –
9 | > 100 | > 100 | > 100 | > 100 | NCc1cccc(C(=O)Nc2ccncc2)c1 [Compound 9, 3-aminomethyl-N-pyridin-4-yl-benzamide dihydrochloric acid salt] | – | – | – | –
10 | – | – | – | – | 4-aminomethyl-2,5-dimethyl-N-pyridin-4-yl-benzamide dihydrochloric acid salt [Compound 39] | > 100 | > 100 | 8.3 | 16.8
11 | 41.5 | 35.9 | 0.72 | 3.9 | NC(c1ccc(C(=O)Nc2ccncc2)cc1)C1CC1 (stereo not drawn) [Compound 26] | – | – | – | –
12 | 6.4 | > 100 | 2.5 | 7.8 | CC(N)c1ccc(C(=O)Nc2ccncc2)c2ccccc12 (stereo not drawn) [Compound 38, 4-(1-amino-ethyl)-naphthalene-1-carboxylic acid pyridinedin-4-ylamide dihydrochloric acid salt] | – | – | – | –
13 | > 100 | > 100 | 9.5 | 28.9 | NC(c1ccc(F)cc1)c1ccc(C(=O)Nc2ccncc2)cc1 (stereo not drawn) [Compound 36, 4-[1-amino-(4-fluorophenyl)-methyl]-N-pyridin-4-yl-benzamide dihydrochloric acid salt] | – | – | – | –
14 | > 100 | > 100 | 8.04 | 11.3 | NC(c1ccccc1)c1ccc(C(=O)Nc2ccncc2)cc1 (stereo not drawn) [Compound 35, 4-(1-amino-phenyl-methyl)-N-pyridin-4-yl-benzamide] | – | – | – | –
15 | 51.4 | > 100 | 6.23 | 9.14 | NCc1ccc(C(=O)Nc2ccncc2)cc1 [Compound 20, 4-aminomethyl-N-pyridin-4-yl-benzamide dihydrochloric acid salt] | – | – | – | –
16 | > 100 | > 100 | > 100 | > 100 | NC[C@H]1CC[C@H](C(=O)Nc2ccc(F)cc2)CC1 [Compound 4, Trans-4-aminomethyl-cyclohexanecarboxylic acid (4-fluoro-phenyl)-amide hydrochloric acid salt] | – | – | – | –
